# According to US8889854B2, “C-17 bicyclic amines of triterpenoids with HIV maturation inhibitory activity” (priority 2012, dated 2014):
# System: recombinant NL4-3 virus (Renilla luciferase in nef, Gag P373S; NLRluc)
# Experiment: HIV Cell Culture Assay (luciferase reporter virus in MT-2 cells)
# Format: cell-based
# Conditions: Renilla, NL43, MT-2 cells infected for 4-5 days with NLRluc recombinants; luciferase activity
# Method: MT-2 cells and 293T cells were obtained from the NIH AIDS Research and Reference Reagent Program. MT-2 cells were propagated in RPMI 1640 media supplemented with 10% heat inactivated fetal bovine serum, […]. The 293T cells were propagated in DMEM media supplemented with 10% heat inactivated fetal bovine serum (FBS), 100 units/mL penicillin G and 100 μg/mL streptomycin. The proviral DNA clone of NL4-3 was obtained from the NIH AIDS Research and Reference Reagent Program. A recombinant NL4-3 virus, in which a section of the nef gene from NL4-3 was replaced with the Renilla luciferase gene, was used as a reference virus. In addition, residue Gag P373 was converted to P373S. Briefly, the recombinant virus was prepared by transfection of the altered proviral clone of NL4-3. Transfections were performed in 293T cells using LipofectAMINE PLUS from Invitrogen (Carlsbad, Calif.), according to manufacturer's instruction. The virus was titered in MT-2 cells using luciferase enzyme activity as a marker. Luciferase was quantitated using the Dual Luciferase kit from Promega (Madison, Wis.), with modifications to the manufacturer's protocol. The diluted Passive Lysis solution was pre-mixed with the re-suspended Luciferase Assay Reagent and the re-suspended Stop & Glo Substrate (2:1:1 ratio). Fifty (50) μL of the mixture was added to each aspirated well on assay plates and luciferase activity was measured immediately on a Wallac TriLux (Perkin-Elmer). Antiviral activities of inhibitors toward the recombinant virus were quantified by measuring luciferase activity in cells infected for 4-5 days with NLRluc recombinants in the presence serial dilutions of the inhibitor. Table 1 is the key for the data in Table 2.
row,Compound,EC50 [nM]
1,"C=C(C)[C@@H]1CC[C@]2(NCCN3C[C@@H]4C[C@H]3CS4(=O)=O)CC[C@]3(C)[C@H](CC[C@@H]4[C@@]5(C)CC=C(C6=CCC(C(=O)O)CC6)C(C)(C)[C@@H]5CC[C@]43C)[C@@H]12 (stereo partly drawn) [Example B2, 4-((1R,3aS,5aR,5bR,7aR,11aS,11bR,13aR,13bR)-3a-((2((1S,4S)-2,2-dioxido-2-thia-5-azabicyclo[2.2.1]heptan-5-yl)ethyl)amino)-5a,5b,8,8,11a-pentamethyl-1-(prop-1-en-2-yl)-2,3,3a,4,5,5a,5b,6,7,7a,8,11,11a,11b,12,13,13a,13b-octadecahydro-1H-cyclopenta[a]chrysen-9-yl)cyclohex-3-enecarboxylic acid]",1.18
2,C=C(C)[C@@H]1CC[C@]2(NCCN3CCC4(CC3)COC4)CC[C@]3(C)[C@H](CC[C@@H]4[C@@]5(C)CC=C(c6ccc(C(=O)O)cc6)C(C)(C)[C@@H]5CC[C@]43C)[C@@H]12 [Example B3],3.82
3,"C=C(C)[C@@H]1CC[C@]2(NCCN3C[C@@H]4C[C@H]3CS4(=O)=O)CC[C@]3(C)[C@H](CC[C@@H]4[C@@]5(C)CC=C(C6=CC[C@@H](C(=O)O)CC6)C(C)(C)[C@@H]5CC[C@]43C)[C@@H]12 [Example B8, (S)-4-((1R,3aS,5aR,5bR,7aR,11aS,11bR,13aR,13bR)-3a-((2-((1S,4S)-2,2-dioxido-2-thia-5-azabicyclo[2.2.1]heptan-5-yl)ethyl)amino)-5a,5b,8,8,11a-pentamethyl-1-(prop-1-en-2-yl)-2,3,3a,4,5,5a,5b,6,7,7a,8,11,11a,11b,12,13,13a,13b-octadecahydro-1H-cyclopenta[a]chrysen-9-yl)cyclohex-3-enecarboxylic acid]",1.3
4,"C=C(C)[C@@H]1CC[C@]2(NCCN3C[C@@H]4C[C@H]3CO4)CC[C@]3(C)[C@H](CC[C@@H]4[C@@]5(C)CC=C(C6=CC[C@H](C(=O)O)CC6)C(C)(C)[C@@H]5CC[C@]43C)[C@@H]12 [Example B9, (R)-4-((1R,3aS,5aR,5bR,7aR,11aS,11bR,13aR,13bR)-3a-((2-((1S,4S)-2-oxa-5-azabicyclo[2.2.1]heptan-5-yl)ethyl)amino)-5a,5b,8,8,11a-pentamethyl-1-(prop-1-en-2-yl)-2,3,3a,4,5,5a,5b,6,7,7a,8,11,11a,11b,12,13,13a,13b-octadecahydro-1H-cyclopenta[a]chrysen-9-yl)cyclohex-3-enecarboxylic acid]",1.69

# Same assay, conditions: Renilla, NL43, MT-2 cells infected for 4-5 days with NLRluc recombinants; luciferase activity; reported as group A/B
row,Compound,EC50 [nM]
1,"C=C(C)[C@@H]1CC[C@]2(NCCN3C[C@@H]4C[C@H]3CO4)CC[C@]3(C)[C@H](CC[C@@H]4[C@@]5(C)CC=C(C6=CC[C@@H](C(=O)O)CC6)C(C)(C)[C@@H]5CC[C@]43C)[C@@H]12 [Example B10, (S)-4-((1R,3 aS,5aR,5bR,7aR,11aS,11bR,13 aR,13bR)-3a-((2-((1S,4S)-2-oxa-5-azabicyclo[2.2.1]heptan-5-yl)ethyl)amino)-5a,5b,8,8,11a-pentamethyl-1-(prop-1-en-2-yl)-2,3,3a,4,5,5a,5b,6,7,7a,8,11,11a,11b,12,13,13a,13b-octadecahydro-1H-cyclopenta[a]chrysen-9-yl)cyclohex-3-enecarboxylic acid]",< 100
2,"C=C(C)[C@@H]1CC[C@]2(NCCN3C[C@@H]4C[C@H]3CS4(=O)=O)CC[C@]3(C)[C@H](CC[C@@H]4[C@@]5(C)CC=C(C6=CC[C@H](C(=O)O)CC6)C(C)(C)[C@@H]5CC[C@]43C)[C@@H]12 [Example B11, (R)-4-((1R,3aS,5aR,5bR,7aR,11aS,11bR,13aR,13bR)-3a-((2-((1S,4S)-2,2-dioxido-2-thia-5-azabicyclo[2.2.1]heptan-5-yl)ethyl)amino)-5a,5b,8,8,11a-pentamethyl-1-(prop-1-en-2-yl)-2,3,3a,4,5,5a,5b,6,7,7a,8,11,11a,11b,12,13,13a,13b-octadecahydro-1H-cyclopenta[a]chrysen-9-yl)cyclohex-3-enecarboxylic acid]",< 100
3,"C=C(C)[C@@H]1CC[C@]2(NCCN3C[C@@H]4C[C@H]3CS4(=O)=O)CC[C@]3(C)[C@H](CC[C@@H]4[C@@]5(C)CC[C@H](OC(=O)CC(C)(C)C(=O)O)C(C)(C)[C@@H]5CC[C@]43C)[C@@H]12 [Example B12, 4-(((1R,3aS,5aR,5bR,7aR,9S,11aR,11bR,13aR,13bR)-3a-((2-((1S,4S)-2,2-dioxido-2-thia-5-azabicyclo[2.2.1]heptan-5-yl)ethyl)amino)-5a,5b,8,8,11a-pentamethyl-1-(prop-1-en-2-yl)icosahydro-1H-cyclopenta[a]chrysen-9-yl)oxy)-2,2-dimethyl-4-oxobutanoic acid]",< 100
